According to PMC10501769 (eLife, 2023):

Target: Rv0158 (Mycobacterium tuberculosis, UniProt O53641)
Assay: biochemical

Chain of Rv0158 (O53641 entry or part of it): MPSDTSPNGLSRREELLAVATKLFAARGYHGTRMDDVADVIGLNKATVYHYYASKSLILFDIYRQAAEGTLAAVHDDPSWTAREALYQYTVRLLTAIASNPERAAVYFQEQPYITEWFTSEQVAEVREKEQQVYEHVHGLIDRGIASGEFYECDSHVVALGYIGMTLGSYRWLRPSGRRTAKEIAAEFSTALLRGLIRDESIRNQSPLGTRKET

| Compound | Kd [nM] |
| --- | --- |
| CCCCCCCCCCCC(=O)SCCNC(=O)CCNC(=O)[C@H](O)C(C)(C)COP(=O)(O)OP(=O)(O)OC[C@H]1O[C@@H](n2cnc3c(N)ncnc32)[C@H](O)[C@@H]1OP(=O)(O)O [C12-CoA] | 1100 ± 600 |
| CCCCCCCCCCCCCCCC(=O)SCCNC(=O)CCNC(=O)[C@H](O)C(C)(C)COP(=O)(O)OP(=O)(O)OC[C@H]1O[C@@H](n2cnc3c(N)ncnc32)[C@H](O)[C@@H]1OP(=O)(O)O [C16-CoA] | 1800 ± 500 |
| CCCCCCCCCCCCCCCCCC(=O)SCCNC(=O)CCNC(=O)[C@H](O)C(C)(C)COP(=O)(O)OP(=O)(O)OC[C@H]1O[C@@H](n2cnc3c(N)ncnc32)[C@H](O)[C@@H]1OP(=O)(O)O [C18-CoA] | 2800 ± 800 |
| CCCCCCCCCC(=O)SCCNC(=O)CCNC(=O)[C@H](O)C(C)(C)COP(=O)(O)OP(=O)(O)OC[C@H]1O[C@@H](n2cnc3c(N)ncnc32)[C@H](O)[C@@H]1OP(=O)(O)O [Decanoyl-CoA] | 6400 ± 1200 |
| CC(C)(COP(=O)(O)OP(=O)(O)OC[C@H]1O[C@@H](n2cnc3c(N)ncnc32)[C@H](O)[C@@H]1OP(=O)(O)O)[C@@H](O)C(=O)NCCC(=O)NCCSC(=O)CC(=O)O [Malonyl-CoA] | 2400 ± 1000 |
| CC(C(=O)O)C(=O)SCCNC(=O)CCNC(=O)[C@H](O)C(C)(C)COP(=O)(O)OP(=O)(O)OC[C@H]1O[C@@H](n2cnc3c(N)ncnc32)[C@H](O)[C@@H]1OP(=O)(O)O (stereo partly drawn) [Methylmalonyl-CoA] | 900 ± 300 |
